Measurements: patent US11548875B2, “Inhibitor compounds for male contraception” (University of Washington, priority 2018, dated 2023)
Where two headings read alike, the source gives them in different places.

How the values were obtained:
ALDH1A1 [1] = target: T1, ALDH1A1 (Homo sapiens, UniProt P00352); assay: Inhibitor screening using purified enzymes: ALDH1A1 activity, retinoic acid production by HPLC; assay type: biochemical; details: purified enzyme
T1 sequence (P00352 1-501): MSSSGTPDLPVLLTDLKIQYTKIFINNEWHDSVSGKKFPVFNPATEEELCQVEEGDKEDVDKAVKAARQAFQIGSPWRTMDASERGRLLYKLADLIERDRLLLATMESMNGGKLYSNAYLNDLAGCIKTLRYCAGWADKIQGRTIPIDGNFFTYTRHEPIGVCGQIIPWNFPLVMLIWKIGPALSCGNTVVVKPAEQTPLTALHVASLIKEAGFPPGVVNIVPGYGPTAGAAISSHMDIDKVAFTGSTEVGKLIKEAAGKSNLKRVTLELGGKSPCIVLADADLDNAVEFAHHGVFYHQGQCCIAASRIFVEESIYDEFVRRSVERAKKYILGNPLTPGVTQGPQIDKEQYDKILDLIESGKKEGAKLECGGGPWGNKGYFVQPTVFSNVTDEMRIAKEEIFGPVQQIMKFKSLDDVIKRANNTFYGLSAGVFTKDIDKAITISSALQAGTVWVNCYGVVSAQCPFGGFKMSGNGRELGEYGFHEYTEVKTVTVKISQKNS
Text: (§1) ALDHs were cloned into bacterial expression vector for in vitro enzyme assays and into mammalian expression vectors for cell-based enzyme assays. Human ALDH1A1 cDNA and human ALDH2 cDNA were purchased from OriGene (SC321535) and Open Biosystems (MHS4771-99611182), respectively. and human ALDH1A2 cDNA was cloned from human testis RNA using RT-PCR (Population Division of the Department of Economic and Social Affairs of the United Nations Secretariat. World Population prospects: the 2008 revision. Available at http://www.un.org/esa/population/ (Retrieved Sep. 30, 2011)). For bacterial expression, an open reading frame of ALDH1A1 and ALDH2 were subcloned into the pETite vector (Lucigen) with a 5′ histidine-tag and that of ALDH1A2 into a pET28 vector (Novagen) with a 3′ histidine-tag. Correct frame and sequences were verified through DNA sequencing (UW DNA sequencing facility). ALDHs were induced with 1 mM IPTG and purified using His.Bind resin (Novagen, San Diego, Calif.) and stored in a buffer containing 20 mM Hepes (pH 8), 150 mM KCl and 1 mM EDTA as previously described (Fierce, Y., de Morais Vieira, M., Piantedosi, R., Wyss, A., Blaner, W. S., and Paik, J. (2008) In vitro and in vivo characterization of retinoid synthesis from beta-carotene. Archives of biochemistry and biophysics 472, 126-138).
(§2) ALDH1A1 and ALDH1A2 activity was determined as previously reported (Beedle M T, Stevison F, Zhong G, Topping T, Hogarth C, Isoherranen N, Griswold M D. Sources of All-Trans Retinal Oxidation Independent of the Aldehyde Dehydrogenase 1A Isozymes Exist in the Postnatal Testis. Biol Reprod. 2018 Sep. 21. doi: 10.1093/biolre/ioy200). Briefly, purified enzymes were incubated in a buffer containing 10 mM HEPES buffer (pH 8.0), 150 mM potassium chloride and 2 mM EDTA with 2 mM NAD. Retinoic acid production was determined using HPLC as previously reported (Amory J K, Muller C H, Shimshoni A J, Isoherranen N, Paik J, Moreb J S, Amory D W, Evanoff R, Goldstein A S, Griswold M D. Suppression of spermatogenesis by bisdichloroacetyldiamines is mediated by inhibition of testicular retinoic acid biosynthesis. Journal of Andrology 2011; 32(1):111-119). Inhibitors were diluted in DMSO and added to the reactions. […] For initial screening of inhibitors for ALDH1A2, 1 μg ALDH1A2, 5 μM all-trans-retinal and 5 μM inhibitors were incubated for 15 min at 37° C. […] For this purpose, 0.5 μg ALDH1A2 and […] were incubated for 5 minutes at 37° C. with varying concentrations of inhibitors. To determine specificity toward ALDH1A2, the IC50 for […]

ALDH1A2 [2] = target: T2, ALDH1A2 (Homo sapiens, UniProt O94788); assay: Inhibitor screening using purified enzymes: ALDH1A2 activity, retinoic acid production by HPLC (5 uM initial screen, then IC50); assay type: biochemical; set-up: histidine-tag (C); made in house; host or cells: bacterial expression (pET28 vector, IPTG induction); details: purified enzyme
T2 sequence (O94788 1-518): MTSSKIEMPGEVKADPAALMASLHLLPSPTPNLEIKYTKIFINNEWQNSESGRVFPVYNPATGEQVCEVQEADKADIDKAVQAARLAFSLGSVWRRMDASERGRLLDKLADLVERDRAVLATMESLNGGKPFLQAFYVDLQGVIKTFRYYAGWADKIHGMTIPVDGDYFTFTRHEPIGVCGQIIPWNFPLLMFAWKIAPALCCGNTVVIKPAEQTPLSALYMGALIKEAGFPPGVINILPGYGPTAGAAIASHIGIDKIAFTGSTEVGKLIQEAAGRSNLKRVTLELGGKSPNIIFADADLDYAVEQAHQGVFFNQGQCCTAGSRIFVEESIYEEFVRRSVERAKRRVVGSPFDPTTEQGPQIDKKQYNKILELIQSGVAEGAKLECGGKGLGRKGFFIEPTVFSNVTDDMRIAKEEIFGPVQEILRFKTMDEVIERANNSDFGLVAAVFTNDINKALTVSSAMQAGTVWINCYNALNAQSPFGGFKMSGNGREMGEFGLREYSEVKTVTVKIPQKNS
Text: as §1, §2

ALDH2 = target: T3, ALDH2 (Homo sapiens, UniProt P05091); assay: Purified ALDH2 assay with propanal, NADH fluorescence; assay type: biochemical; details: purified enzyme
T3 construct: histidine-tag (N); made in house; host or cells: bacterial expression (pETite vector, IPTG induction)
T3 sequence (P05091 18-517): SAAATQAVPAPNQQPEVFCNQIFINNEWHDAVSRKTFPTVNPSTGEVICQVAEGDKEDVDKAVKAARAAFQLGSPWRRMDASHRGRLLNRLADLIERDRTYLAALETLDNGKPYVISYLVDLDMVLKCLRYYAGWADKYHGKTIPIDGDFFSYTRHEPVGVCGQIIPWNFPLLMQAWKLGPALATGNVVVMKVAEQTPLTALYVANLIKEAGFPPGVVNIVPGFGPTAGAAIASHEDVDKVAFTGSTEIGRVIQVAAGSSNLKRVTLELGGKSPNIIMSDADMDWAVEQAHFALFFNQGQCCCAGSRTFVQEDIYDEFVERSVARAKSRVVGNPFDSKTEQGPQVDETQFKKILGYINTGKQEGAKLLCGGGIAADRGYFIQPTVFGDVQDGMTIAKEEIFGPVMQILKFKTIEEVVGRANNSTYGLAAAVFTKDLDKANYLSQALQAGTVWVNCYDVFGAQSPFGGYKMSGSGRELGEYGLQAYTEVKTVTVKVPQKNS
Text: as §1, with “126-138). […]” for “126-138).”
For this, 2 μg purified ALDH2, 20 μM propanal and varying concentrations of inhibitors were incubated at room temperature. Enzyme activity was determined by measuring fluorescence of NADH (Ex, 350 nm/Em, 460 nm) using a Victor3 plate reader (PerkinElmer), and initial velocity was calculated from two consecutive readings over 1 minute.

ALDH1A1 [3] = target: T1, ALDH1A1; assay: Cell-based enzyme assay, retinoic acid production in ALDH1A1/H1299 cells
Protocol: (§3) ALDH1A1 cDNA clone was purchased transfection-ready, and ALDH1A2 full-length cDNA was subcloned into pcDNA3, a mammalian expression vector. ALDH1A1 and ALDH1A2 were transfected into H1299 cells (CRL5803, ATCC) using Lipofectamine 3000 (Invitrogen) following the manufacturer's instructions. Stably transfected cells were selected with G418 (1.2 mg/ml) and referred to as ALDH1A1/H1299 and ALDH1A2/H1299. For the cell-based enzyme assays,
(§4) H1299 cells were routinely grown in RPMI-1640 (ATCC) supplemented with 10% fetal bovine serum (Atlanta Biologicals) in a 37 C, 5% CO2, moisture-saturated atmosphere. H1299, ALDH1A1/H1299 and ALDH1A2/H1299 cells were seeded into 12-well plates (1×10^5 cells/well) and grown for 2 days to confluence. Confluent cells were treated for 20 hours in the above media excluding serum with 2 μM all-trans-retinal, and varying concentrations of inhibitors. Serum-free media was used for the treatment period to avoid retinoic acid in serum. Retinoic acid concentrations were determined from cells and media, and specificity of inhibitors was determined by comparing retinoic acid levels in the presence and absence of the inhibitors in ALDH1A1- vs. ALDH1A2-expressing cells.

ALDH1A2 [4] = target: T2, ALDH1A2; assay: Cell-based enzyme assay, retinoic acid production in ALDH1A2/H1299 cells
Protocol: as §3, §4

IC50 (ALDH1A1 [1]) [µM]	IC50 (ALDH1A2 [2]) [µM]	IC50 (ALDH2) [µM]	EC50 (ALDH1A1 [3]; cell-based) [µM]	EC50 (ALDH1A2 [4]; cell-based) [µM]	EC50 (ALDH1A1 [3]) [µM]	EC50 (ALDH1A2 [4]) [µM]	Compound
3.9	0.72						O=C(Nc1cccc(F)c1)c1cn(-c2ccccc2)nc1-c1ccc(CBr)cc1 [Compound 8-44, 3-[4-(Bromomethyl)phenyl]-N-(3-fluorophenyl)-1-phenyl-1H-pyrazole-4-carboxamide]
0.092	3.9						CCN(Cc1nn(-c2ccccc2)cc1C(=O)Nc1cccc(F)c1)C(=O)C(Cl)Cl [Compound 8-54, 3-{[(Dichloroacetyl)(ethyl)amino]methyl}-N-(3-fluorophenyl)-1-phenyl-1H-pyrazole-4-carboxamide]

The remaining lines, values behind:

Compound	IC50 (ALDH1A1 [1]) [µM]	IC50 (ALDH1A2 [2]) [µM]	IC50 (ALDH2) [µM]	EC50 (ALDH1A1 [3]; cell-based) [µM]	EC50 (ALDH1A2 [4]; cell-based) [µM]	EC50 (ALDH1A1 [3]) [µM]	EC50 (ALDH1A2 [4]) [µM]
1-[4-(4-Nitrophenyl)-3-(azocan-1-yl)]piperazin-1-yl](1-methyl-1H-pyrrol-2-yl)methanone [Compound N104]	0.141	6.5					
CCOC(=O)c1cn(-c2ccccc2)nc1-c1ccc(S(C)(=O)=O)cc1 [Compound 232, Ethyl 3-[4-(methylsulfonyl)phenyl]-1-phenyl-1H-pyrazole-4-carboxylate]			> 5	0.723	0.317		
CS(=O)(=O)c1ccc(-c2nn(-c3ccc(F)cc3)cc2C(=O)Nc2cccc(C(F)(F)F)c2)cc1 [Compound 256, N-(3-Trifluoromethylphenyl)-1-(4-fluorophenyl)-3-[4-(methylsulfonyl)phenyl]-1H-pyrazole-4-carboxamide]		0.112		46	0.011		
COC(=O)c1ccc(-n2cc(C(=O)Nc3cccc(F)c3)c(-c3ccc(S(C)(=O)=O)cc3)n2)cc1 [Compound 273, Methyl 4-{4-[(3-fluorophenyl)carbamoyl]-3-[4-(methylsulfonyl)phenyl]-1H-pyrazol-1-yl} benzoate]		0.179		5.63	0.045		
CS(=O)(=O)c1ccc(-c2nn(-c3ccc(C=O)cc3)cc2C(=O)Nc2cccc(F)c2)cc1 [Compound 280, 1-(4-Formylphenyl)-3-[4-(methylsulfonyl)phenyl]-N-(3-fluorophenyl)-1H-pyrazole-4-carboxamide]		> 5		> 20	0.3		
CC(=O)Oc1ccccc1OC(=O)c1cn(-c2cccc(Cl)c2)nc1-c1ccc(S(C)(=O)=O)cc1 [Compound 291, 2-(Acetyloxy)phenyl 1-(3-chlorophenyl)-3-[4-(methylsulfonyl)phenyl]-1H-pyrazole-4-carboxylate]				> 20	0.042		
O=C(O)c1ccc(-n2cc(C(=O)Nc3cccc(F)c3)c(-c3ccc(O)cc3)n2)cc1 [Compound 306, 4-{4-[(3-Fluorophenyl)carbamoyl]-3-(4-hydroxyphenyl)-1H-pyrazol-1-yl}benzoic acid]				9.62	0.15		
O=C(O)c1ccc(-n2cc(C(=O)Nc3ccccc3O)c(-c3ccc(O)cc3)n2)cc1 [Compound 307, 4-{3-(4-Hydroxyphenyl)-4-[(2-hydroxyphenyl)carbamoyl]-1H-pyrazol-1-yl}benzoic acid]				> 20	0.25		
Cn1cccc1C(=O)N1CCN(c2ccc(NC(=O)C(Cl)Cl)c(N3CCCCCC3)c2)CC1 [Compound 381, {4-[4-Dichloroacetamido-3-(azepan-1-yl)phenyl]piperazin-1-yl}(1-methyl-1H-pyrrol-2-yl)methanone]		18.5				0.059	> 5
Methyl 4-{4-[(2-hydroxyphenyl)carbamoyl]-[4-(methylsulfonyl)phenyl]-1H-pyrazol-1-yl} benzoate [Compound 274]		0.131		2.23	0.008		
